In patent US5576323A, “Excitatory amino acid receptor antagonists” (Eli Lilly and Company, priority 1994, dated 1996):

test system: metabotropic glutamate receptors; test: displacement of 1S,3R-ACPD-sensitive [3H]glutamate binding to rat forebrain crude membranes; details: 100 μM, mixture of enantiomers unless otherwise noted
Protocol: The binding of [^3 H]glutamate was conducted with crude membranes of rat forebrain as described by Schoepp and True. Schoepp and True, Neuroscience Lett., 145, 100-104 (1992), True and Schoepp, Society for Neuroscience Abstracts, 19, 470 (1993) and Wright, McDonald and Schoepp, J. Neurochem. 63: 938-945, 1994.

In order of falling “Percent displacement of L-[3H]Glu” value:
1. N[C@@H](C[C@H](Oc1ccc2oc3ccccc3c2c1)C(=O)O)C(=O)O [Compound 47, (2S,4S)-4-(2-Dibenzofuranoxy)glutamic Acid]  107.1%
2. Cc1ccc(O[C@@H](C[C@H](N)C(=O)O)C(=O)O)cc1 [Compound 44, (2S,4S)-4-(4-Methylphenoxy)glutamic Acid]  103.2%
3. N[C@@H](C[C@H](Oc1ccc2ccccc2c1)C(=O)O)C(=O)O [Compound 45, (2S,4S)-4-(2-Naphthyloxy)glutamic Acid]  101.5%
4. NC(CC(Sc1ccc2ccccc2c1)C(=O)O)C(=O)O (centres unmarked) [Compound 24, 4-(2-Naphthalenethio)glutamic Acid]  100.6%
5. N[C@@H](CC(Oc1ccc2cc(Br)ccc2c1Br)C(=O)O)C(=O)O (some centres unmarked) [Compound 23, 4-(1,6-Dibromo-2-naphthyloxy)glutamic Acid]  99.5%
6. N[C@@H](CC(Oc1ccc2oc3ccccc3c2c1)C(=O)O)C(=O)O (some centres unmarked) [Compound 31, 4-(2-Dibenzofuranoxy)glutamic Acid]  99.4%
7. N[C@@H](CC(Oc1cccc2ccccc12)C(=O)O)C(=O)O (some centres unmarked) [Compound 25, 4-(1-Naphthyloxy)glutamic Acid]  98.5%
8. N[C@@H](CC(Oc1ccc2c(c1)CCC2)C(=O)O)C(=O)O (some centres unmarked) [Compound 28, 4-(5-Indanyloxy)glutamic Acid]  97.8%
9. N[C@@H](CC(Oc1ccc2ccccc2c1)C(=O)O)C(=O)O (some centres unmarked) [Compound 21, 4-(2-Naphthyloxy)glutamic Acid]  95.9%
10. N[C@@H](CC(Oc1ccc2sccc2c1)C(=O)O)C(=O)O (some centres unmarked) [Compound 34, 4-(5-Benzothiophenyloxy)glutamic Acid]  95.3%
11. N[C@@H](CC(Oc1ccc2cc(Br)ccc2c1)C(=O)O)C(=O)O (some centres unmarked) [Compound 22, 4-(6-Bromo-2-naphthyloxy)glutamic Acid]  93.9%
12. N[C@@H](CC(Oc1ccc(Cc2ccccc2)cc1)C(=O)O)C(=O)O (some centres unmarked) [Compound 14, 4-(4-Benzylphenoxy)glutamic Acid]  93.8%
13. N[C@@H](CC(Oc1ccc2c(c1)Cc1ccccc1-2)C(=O)O)C(=O)O (some centres unmarked) [Compound 30, 4-(2-Fluorenoxy)glutamic Acid]  93.7%
14. NC(CC(Oc1ccc2oc3c(c2c1)CCCC3)C(=O)O)C(=O)O (centres unmarked) [Compound 32, 4-(5,6,7,8-Tetrahydro-2-dibenzofuranoxy)glutamic Acid]  92.6%
15. NC(CC(Oc1ccc(C(c2ccc(Cl)cc2)c2ccccn2)cc1)C(=O)O)C(=O)O (centres unmarked) [Compound 35]  92.4%
16. N[C@@H](CC(Oc1ccc(C=Cc2ccc([N+](=O)[O-])cc2)cc1)C(=O)O)C(=O)O (some centres unmarked) [Compound 18, 4-(4-(2-(4-Nitrophenyl)ethenyl)phenoxy)glutamic Acid]  92.1%
17. NC(CC(Oc1ccc(/C=C/c2ccccc2)cc1)C(=O)O)C(=O)O (centres unmarked) [Compound 48, 4-(4-(4-phenylethenyl)phenoxy)glutamic acid]  91.9%
18. Cc1cc2cc(OC(C[C@H](N)C(=O)O)C(=O)O)ccc2o1 (some centres unmarked) [Compound 33, 4-(2-Methyl-5-benzofuranyloxy)glutamic Acid]  90.1%
19. N[C@@H](CC(Sc1n[nH]c(C=Cc2ccccc2Cl)n1)C(=O)O)C(=O)O (some centres unmarked) [Compound 38, 4-(5-((2-Chlorophenyl)ethenyl)-1,2,4-triazole-3-thio)glutamic Acid]  89.9%
20. N[C@@H](CC(Oc1ccc2c(c1)OCO2)C(=O)O)C(=O)O (some centres unmarked) [Compound 29, 4-(3,4-Methylenedioxyphenoxy)glutamic Acid]  89.0%
21. N[C@@H](CC(Oc1ccccc1)C(=O)O)C(=O)O (some centres unmarked) [Compound 1, 4-Phenoxyglutamic Acid]  88.0%
22. N[C@@H](CC(Oc1ccc(-c2ccccc2)cc1)C(=O)O)C(=O)O (some centres unmarked) [Compound 12, 4-(4-Phenylphenoxy)glutamic Acid]  86.7%
23. N[C@@H](CC(Oc1ccccc1Cc1ccccc1)C(=O)O)C(=O)O (some centres unmarked) [Compound 15, 4-(2-Benzylphenoxy)glutamic Acid]  85.9%
24. CC(=O)c1ccc(OC(CC(N)C(=O)O)C(=O)O)cc1 (centres unmarked) [Compound 9]  85.8%
25. N[C@@H](C[C@H](Oc1ccc(-c2ccccc2)cc1)C(=O)O)C(=O)O [Compound 46, (2S,4S)-4-(4-Phenylphenoxy)glutamic Acid]  85.5%
26. N[C@@H](CC(Oc1ccc(Oc2ccccc2)cc1)C(=O)O)C(=O)O (some centres unmarked) [Compound 19, 4-(4-Phenoxyphenoxy)glutamic Acid]  84.6%
27. Cc1ccc(OC(C[C@H](N)C(=O)O)C(=O)O)cc1 (some centres unmarked) [Compound 3, 4-(4-Methylphenoxy)glutamic Acid]  82.4%
28. COc1ccc(OC(C[C@H](N)C(=O)O)C(=O)O)cc1 (some centres unmarked) [Compound 5, 4-(4 Methoxyphenoxy)glutamic Acid]  82.3%
29. N[C@@H](CC(Oc1cccc2c1CCCC2)C(=O)O)C(=O)O (some centres unmarked) [Compound 26, 4-(5,6,7,8-Tetrahydro-1-naphthyloxy)glutamic Acid]  82.1%
30. N[C@@H](CC(Oc1cccc(-c2ccccc2)c1)C(=O)O)C(=O)O (some centres unmarked) [Compound 13, 4-(3-Phenylphenoxy)glutamic Acid]  81.6%
31. N[C@@H](CC(Oc1ccc(CCc2ccccc2)cc1)C(=O)O)C(=O)O (some centres unmarked) [Compound 49, 4-(4-(2-phenylethyl)phenoxy)glutamic acid]  81.5%
32. NC(CC(Sc1nncn1Cc1ccccc1)C(=O)O)C(=O)O (centres unmarked) [Compound 36, 4-(4-Benzyl-1,2,4-triazole-3-thio)glutamic Acid]  81.3%
33. N[C@@H](CC(Oc1ccc(CCCCc2ccccc2)cc1)C(=O)O)C(=O)O (some centres unmarked) [Compound 51, 4-(4-(4-phenylbutyl)phenoxy)glutamic acid]  81.0%
34. N[C@@H](CC(Oc1ccc(C(F)(F)F)cc1)C(=O)O)C(=O)O (some centres unmarked) [Compound 10, 4-(4-Trifluoromethylphenoxy)glutamic Acid]  77.9%
35. NC(CC(Sc1ccccc1)C(=O)O)C(=O)O (centres unmarked) [Compound 2, 4-Benzenethioglutamic Acid]  77.1%
36. N[C@@H](CC(Oc1ccc(CCCCCCc2ccccc2)cc1)C(=O)O)C(=O)O (some centres unmarked) [Compound 16, 4-(4-(6-Phenylhexyl)phenoxy)glutamic Acid]  76.9%
37. NC(CC(Oc1ccc(CCCc2ccccc2)cc1)C(=O)O)C(=O)O (centres unmarked) [Compound 50]  75.9%
38. N[C@@H](CC(Oc1ccc(CC=Cc2ccccc2)cc1)C(=O)O)C(=O)O (some centres unmarked) [Compound 17, 4-(4-(3-Phenylprop-2-enyl)phenoxy)glutamic Acid]  75.9%
39. N[C@@H](CC(Oc1ccc(C2CCCC2)cc1)C(=O)O)C(=O)O (some centres unmarked) [Compound 7, 4-(4-Cyclopentylphenoxy)glutamic Acid]  72.0%
40. N[C@@H](CC(Oc1ccc(OCc2ccccc2)cc1)C(=O)O)C(=O)O (some centres unmarked) [Compound 20, 4-(4-Benzyloxyphenoxy)glutamic Acid]  67.8%
41. CC1(C)CCC(C)(C)c2cc(OC(C[C@H](N)C(=O)O)C(=O)O)ccc21 (some centres unmarked) [Compound 27, 4-(6,7-Dihydro-5,5,8,8-tetramethyl-2-naphthyloxy)glutamic Acid]  66.5%
42. Cc1ccccc1OC(C[C@H](N)C(=O)O)C(=O)O (some centres unmarked) [Compound 4, 4-(2-Methylphenoxy)glutamic acid]  66.5%
43. CC(C)c1ccc(OC(C[C@H](N)C(=O)O)C(=O)O)cc1 (some centres unmarked) [Compound 6, 4-(4-(Isopropyl)phenoxy)glutamic Acid]  53.9%
44. CC(C)(C)CC(C)(C)c1ccc(OC(C[C@H](N)C(=O)O)C(=O)O)cc1 (some centres unmarked) [Compound 8, 4-(4-(1,1,3,3-Tetramethylbutyl)phenoxy)glutamic Acid]  52.3%
